Experimental data reported in ChEMBL document CHEMBL2094269, “WEHI/Eskitis Trypanosoma b. brucei screening data”.

System: Trypanosoma brucei brucei
Assay: microbe, parasite or virus in culture
Type: functional, organism-based, STIB 795
Conditions: Trypanosoma brucei, STIB 795
Description: DNDI: Inhibition of Human African Trypanosomiasis (HAT), STIB 795, in vitro

Compound | IC50
CCN(CC)CCn1c2ccccc2c2nc3ccccc3nc21 | > 10.4 µM
Cc1cccc(C(=N)NOC(=O)c2ccc3c(c2)OCO3)c1 | > 10.4 µM
Oc1ccc(CN2CCC(Cc3ccccc3)CC2)c2cccnc12 | > 10.4 µM
Brc1ccc(C2Nc3cccc4cccc(c34)N2)o1 | > 10.4 µM
Cn1c(SC2=CS(=O)(=O)c3ccccc32)nc2ccccc21 | > 10.4 µM
COc1cc(C(=O)O/N=C(\N)c2ccncc2)cc(OC)c1OC | > 10.4 µM
CCOC(=O)C(=Cc1ccc(Br)cc1)C(=O)OCC | > 10.4 µM
C=CCc1c(C)nc(SC)nc1Nc1ccc(C(C)=O)cc1 | > 10.4 µM
COc1ccc(Nc2nccc(-c3cccc(N)c3)n2)cc1 | > 10.4 µM
CCC(=O)Nc1nc2ccccc2n1Cc1ccccc1C | > 10.4 µM
COc1cc(NS(=O)(=O)c2ccc(C)cc2)c2ncccc2c1 | > 10.4 µM
N=C(Cc1cccc2ccccc12)NOC(=O)c1cccs1 | > 10.4 µM
COC(=O)c1sc(=S)n(-c2cc(F)ccc2F)c1N | > 10.4 µM
N=C(NOC(=O)c1ccoc1)c1ccc(Br)cc1 | > 10.4 µM
N=C(NOC(=O)c1cccc(Br)c1)c1ccncc1 | > 10.4 µM
N=C(NOC(=O)c1ccc(Cl)c(Cl)c1)c1ccccn1 | > 10.4 µM
CCOc1ccc2c(C)nc(NC3=NC(C)=CC(C)(C)N3)nc2c1 | > 10.4 µM
COc1nc(Nc2nc(O)c3ccccc3n2)nc2ccc(C)cc12 | > 10.4 µM
CC(C)N1C/C(=C/c2ccsc2)C(=O)/C(=C/c2ccsc2)C1 | > 10.4 µM
Cc1ccc(C(CC(=O)c2ccco2)SCCO)cc1 (centres undefined) | > 10.4 µM
N=C(NOC(=O)C12CC3CC(CC(C3)C1)C2)c1cccnc1 | > 10.4 µM
NC(CCCCc1ccccc1)c1cccc2ccccc12 (centres undefined) | > 10.4 µM
N=C(N)Nc1nc(-c2ccccc2)c2cc(Cl)ccc2n1 | > 10.4 µM
CC(=O)c1cccc(Nc2cc(C)nc3c(C)cc(C)cc23)c1 | > 10.4 µM
CN(C)CCOC1c2ccccc2CCc2ccc3ccccc3c21 (centres undefined) | > 10.4 µM
Nc1nc(Nc2ccccc2)sc1C(=O)c1c[nH]c2ccccc12 | > 10.4 µM

Compound | IC50
c1ccc(/C(=N\Nc2nc3ccccc3s2)c2ccccn2)cc1 | > 10.4 µM
COc1ccc(O)c(/C=N/NC(=O)c2cccc3ccccc23)c1 | > 10.4 µM
CNC(c1ccccc1)C1c2cccc3cccc(c23)C1O (centres undefined) | > 10.4 µM
Cc1ccc(C(=O)O/N=C(\N)c2cccnc2)cc1Cl | > 10.4 µM
Cc1cccc(/C=N\Nc2nncc(-c3ccccc3)n2)n1 | > 10.4 µM
Cc1ccc(Nc2nn3nnnc3c3ccccc23)c(C)c1 | > 10.4 µM
Nc1ncc(CCc2cccc(-c3ccccc3)c2)c(N)n1 | > 10.4 µM
CC(C)=CCC1(C)C(=O)N(c2ccccc2)c2ccccc21 (centres undefined) | > 10.4 µM
C=CCN1C(=O)/C(=N/NC(=S)SC)c2ccccc21 | > 10.4 µM
CCCCN(CCCC)CCC12CC3CC(CC(C3)C1)C2 | > 10.4 µM
CC1=C/C(=N\OC(=O)c2ccccc2Cl)CC(C)(C)C1 | > 10.4 µM
CC(=O)c1nc2ccccc2n1CC(=O)c1ccc(C)cc1 | > 10.4 µM
CCc1ccccc1Nc1cc(C)nc2c(OC)cccc12 | > 10.4 µM
CCCCC(O)(CCCC)C(=O)NNc1ccc(C)cc1 | > 10.4 µM
COc1ccccc1NC(=O)c1cc2ccccc2cc1O | > 10.4 µM
CC(C)(C)C(=O)NN=c1c2ccccc2[nH]c2ccccc12 | > 10.4 µM
O=C1/C(=C2\NCC(c3ccccc3)O2)Sc2ccccc21 (centres undefined) | > 10.4 µM
S=C1N(c2ccccc2)c2ccccc2C12CCOCC2 | > 10.4 µM
CN(C)CCCC1=Cc2ccccc2Sc2ccccc21 | > 10.4 µM
Fc1ccccc1Cn1c(C2CCCO2)nc2ccccc21 (centres undefined) | > 10.4 µM
O=c1c(-c2ccccc2)c(-c2ccccc2)[nH]c2ccccc12 | > 10.4 µM
Oc1ccc(/C=N/N2CCN(c3ccccc3)CC2)cc1O | > 10.4 µM
COc1ccc(/C(N)=N/OC(=O)c2ccc(C)c(C)c2)cc1 | > 10.4 µM
CC(C)(C)c1ccc(C(=O)NNC(=O)c2cnccn2)cc1 | > 10.4 µM
O=c1c(Cl)c(Cl)cnn1C12CC3CC(CC(C3)C1)C2 | > 10.4 µM
Cc1c(-c2noc(C(=O)NC(C)C)n2)oc2c(C)cccc12 | > 10.4 µM

Compound | IC50
CCOC(=O)c1c(C)[nH]c(=S)c(C#N)c1-c1ccncc1 | > 10.4 µM
c1ccc(Nc2n[n+](-c3ccccc3)nc3ccccc23)cc1 | > 10.4 µM
CC(C)CCn1c(C(C)N2CCCCC2)nc2ccccc21 (centres undefined) | > 10.4 µM
CCC(=O)c1sc(Nc2ccc(F)c(Cl)c2)nc1N | > 10.4 µM
O=C(CCN1CCCCC1)Nc1ccc(C2CCCC2)cc1 | > 10.4 µM
CCCN(CCC)CC(O)COc1ccc2ccccc2c1 (centres undefined) | > 10.4 µM
O=C1C(=O)/C(=C/c2ccccc2)CCC/C1=C/c1ccccc1 | > 10.4 µM
COC(=O)C1=C(C)NC(=O)/C1=C\c1cccc(OC)c1OC | > 10.4 µM
NCC(OCc1ccc(-c2ccccc2)cc1)c1ccccc1 (centres undefined) | > 10.4 µM
Clc1ccc(Sc2ccc(/C=N/n3cnnc3)o2)cc1 | > 10.4 µM
Oc1ccccc1/C=N/Nc1nc2ccccc2n2nnnc12 | > 10.4 µM
Cc1cc(C)c2nc(C)cc(Nc3ccc(N(C)C)cc3)c2c1 | > 10.4 µM
O=C(Nc1ccnc(Cl)c1)NC12CC3CC(CC(C3)C1)C2 | > 10.4 µM
COc1ccc2c(C)c/c(=N/N=C\c3ccccc3O)[nH]c2c1 | > 10.4 µM
COc1nc(Nc2ccc(Cl)cc2)nc(NC(C)(C)C)n1 | > 10.4 µM
O=C1C(=O)c2c(C(=O)c3cccs3)coc2-c2ccccc21 | > 10.4 µM
CCOC(=O)Cc1csc(NC(=O)c2ccccc2F)n1 | > 10.4 µM
Cc1cc(C(=O)N/N=C/c2c(O)ccc3ccccc23)c(C)o1 | > 10.4 µM
Cc1ccn(CC(=O)N/N=C/c2c(O)ccc3ccccc23)n1 | > 10.4 µM
C(=N\n1cnnc1)/c1cccc(OCCOc2ccccc2)c1 | > 10.4 µM
CCOC(=O)c1sc(=S)n(-c2ccccc2CC)c1N | > 10.4 µM
O=C(N/N=C/c1ccc(O)c2ncccc12)c1ccc(F)cc1 | > 10.4 µM
N#Cc1ccc(-c2csc(NNC(=O)c3ccco3)n2)cc1 | > 10.4 µM
c1ccc(-c2nnc(-c3ccccn3)nc2-c2ccccc2)cc1 | > 10.4 µM
C=CC1=Nc2ccccc2C(c2ccccc2)(c2ccccc2)N1 | > 10.4 µM
O=C(CN1C2=NCCN2c2ccccc21)c1ccc(Cl)cc1 | > 10.4 µM

Compound | IC50
COc1cc(/C=C/c2cc(C(F)(F)F)nc(=O)[nH]2)ccc1O | > 10.4 µM
COC(=O)c1ccccc1N/N=N/c1nc2ccccc2s1 | > 10.4 µM
CCN(CC)c1ccc(/C=N\NC(=O)c2ccccn2)c(O)c1 | > 10.4 µM
O=C1C=C(N2CCCCC2c2cccnc2)C2(CCCCC2)O1 (centres undefined) | > 10.4 µM
COCCN1CSC(=S)N(Cc2ccc(OC)cc2)C1 | > 10.4 µM
CN(C)CCCC1(C)Oc2ccccc2Sc2ccccc21 (centres undefined) | > 10.4 µM
CSc1cccc(C(=O)Nc2cc(F)c(F)cc2Cl)c1 | > 10.4 µM
N#CC(c1ccc(Cl)cc1Cl)c1cnnc2ccccc12 (centres undefined) | > 10.4 µM
COc1ccc(-c2cc(-c3c(O)ccc4ccccc34)n[nH]2)cc1 | > 10.4 µM
C1CCC(Nc2nc3nonc3nc2NC2CCCCC2)CC1 | > 10.4 µM
Oc1ccc(/N=N/c2ccccc2C(F)(F)F)c2cccnc12 | > 10.4 µM
CC(C)(C)c1ccc(CCC2OCC(CN3CCCC3)O2)cc1 (centres undefined) | > 10.4 µM
COc1ccc(/C(N)=N/OC(=O)c2ccccc2F)cc1OC | > 10.4 µM
CCOc1ccc(C(=O)CC(c2ccccc2)C(C#N)C#N)cc1 (centres undefined) | > 10.4 µM
Cc1ccc2cc3c(nc2c1)-c1ccccc1/C3=N/NC(N)=S | > 10.4 µM
N#Cc1nc2c(c(N3CCNCC3)c1-c1ccccc1)CCCC2 | > 10.4 µM
COc1ccccc1-c1nnc(Cc2ccc(F)cc2Cl)o1 | > 10.4 µM
CN(C)CC/C=C(\c1ccccc1)c1cccc(C(F)(F)F)c1 | > 10.4 µM
O=C(NCC1CCCO1)c1cnc2sc3c(n2c1=O)CCC3 (centres undefined) | > 10.4 µM
Cc1ccsc1C=NN1CCN(c2ccc(Cl)cc2)CC1 | > 10.4 µM
Cc1ccc(N2CCN(c3ccc4nnc(C)n4n3)CC2)c(C)c1 | > 10.4 µM
Cc1ccc(O)c(/C=N/NC(=O)c2[nH]ncc2Br)c1 | > 10.4 µM
Nc1cc(NC(=O)c2ccncc2)cc(Oc2ccc(F)cc2)c1 | > 10.4 µM
NC(=S)N/N=C(/c1ccc(C(F)(F)F)cc1)c1ccccn1 | > 10.4 µM
COCc1nc2ccccc2n1CCCCOc1cccc(C)c1 | > 10.4 µM
O=C(/C(=C/c1cccnc1)c1nc2ccccc2[nH]1)c1ccccc1 | > 10.4 µM

Compound | IC50
COc1ccc2c(c1)SCc1ccccc1/C2=C\CCN(C)C | > 10.4 µM
CCCCN(CCCC)CCNC(=O)Nc1ccc(Cl)cc1 | > 10.4 µM
Oc1ccc(Br)c2ccc(/C=C/c3ccccc3)nc12 | > 10.4 µM
C=CCc1cccc(/C=N/NC(=O)c2cc(C(C)(C)C)n[nH]2)c1O | > 10.4 µM
Cc1c(-c2cc(Cl)cc3c2OC(C)(C)C3=O)ccc(N)c1C#N | > 10.4 µM
CCCCCOc1ccc(NC(=N)Nc2nc(C)cc(C)n2)cc1 | > 10.4 µM
COc1ccc(-c2nc3c(=O)n(C)c(=O)nc-3n(C)n2)cc1OC | > 10.4 µM
Cc1nn(C(=N)N)c(C)c1C1c2ccccc2CCc2ccccc21 | > 10.4 µM
Fc1cccc(Cl)c1COc1ccc(/C=N/n2cnnc2)cc1 | > 10.4 µM
Clc1ncnc2c1C(c1ccccc1)c1c(Cl)ncnc1O2 | > 10.4 µM
C/C(=N\Nc1nnc2c(n1)[nH]c1c(C)cccc12)c1ccccc1O | > 10.4 µM
CCCNc1nc(NC2CCCCC2)nc(NC2CCCCC2)n1 | > 10.4 µM
Cc1ccc(Nc2nc3nonc3nc2NC(C)(C)C)cc1Cl | > 10.4 µM
Cc1ccc(S(=O)(=O)Nc2ccc(Cl)c3cccnc23)cc1 | > 10.4 µM
Cc1cc(OCC(=O)NNc2ccccc2)c(C(C)C)cc1Cl | > 10.4 µM
CC(Nc1cccc2ccccc12)C(=O)N/N=C/c1cccc(O)c1 (centres undefined) | > 10.4 µM
COC(=O)c1cccc(Nc2nc(N)c(C(=O)CC(C)C)s2)c1 | > 10.4 µM
Cc1cc(Br)cc(/C=N/NC(=O)c2ccncc2)c1O | > 10.4 µM
Nc1ccccc1S(=O)(=O)Nc1cccc2cccnc12 | > 10.4 µM
NS(=O)(=O)c1ccc(N/C=C2\C(=O)Nc3ccccc32)cc1 | > 10.4 µM
CCCCC(CC)C(=O)Nc1ccc2ccc3cccnc3c2n1 (centres undefined) | > 10.4 µM
c1ccc(-c2cc(-c3ccccn3)nc(-c3ccccn3)c2)cc1 | > 10.4 µM
c1ccc(CCCNc2ccnc3cc4ccccc4cc23)cc1 | > 10.4 µM
CC(Cc1ccccc1)NCCC1c2ccccc2-c2ccccc21 (centres undefined) | > 10.4 µM
CN(C)CCCC1Sc2ccccc2Sc2ccccc21 (centres undefined) | > 10.4 µM
